# Data taken from EPA's ToxValDB 9.5.
# Tests used:
# Labeo boga = settings: whole body, M/F
# [1] = system: Crangonyx richmondensis ssp. laurentianus; settings: whole body, Monoporeia affinis, parasite infection
# Bird = settings: reproductive, in ovo, M/F, White leghorn chicken, generation: F1
# Monkey = settings: oral, capsule, Cynomolgus; for NOEL: short-term, duration: 29 days, blood: basophils + blood: eosinophils + blood: lymphocytes + blood: monocytes + blood: reticulocytes + blood: segmented neutrophils + blood…
# [2] = system: Crangonyx richmondensis ssp. laurentianus; assay: FEL; higher = less toxic; settings: short-term; duration: 22 day; whole body; M/F; Monoporeia affinis; parasite infection
# Mus musculus = settings: oral
# [3] = chronic, duration: 26 weeks, M, lymphocyte count (%) (Day 182)
# [4] = developmental, duration: 17 days, F, Developmental: Decrease in number of successful birthsbirths
# [5] = short-term, duration: 3 weeks, M, BALB/c, Immunotoxicological: ~36% decrease in spleen index during recovery / ~15% inhibition in Con Ainduced T-cell proliferation during treatment…
# [6] = short-term, duration: 21 days, F, B6C3F1, Immunotoxicological: Decreased host resistance to influenza virus
# [7] = subchronic, duration: 3 months, M/F, C57BL/6, Neurological: Impaired spatial learning and memory
# [8] = subchronic, duration: 5 weeks, M, Body Weight: 17% decrease in body weight + Reproductive: Decreases in sperm concentration, serum testosterone levels / vacuolation in …
smiles,measurement,setting,value
O=S(=O)(O)C(F)(F)C(F)(F)C(F)(F)C(F)(F)C(F)(F)C(F)(F)C(F)(F)C(F)(F)F [Perfluorooctanesulfonic acid],NOEL,"Labeo boga; short-term, duration: 7 day, Oryzias Melastigma, mRNA level for C8 gene + mRNA level for CAT gene + mRNA level for CCL20 gene + mRNA level for Cd3 gene + mRNA level for GPx gene",1 mg/L
same,LOEL,"Labeo boga; short-term, duration: 7 day, Oryzias Melastigma, mRNA level for IL1b gene",0.25 mg/L
same,LOEL,"Labeo boga; short-term, duration: 10 day, Medaka, relative IL-1-beta mRNA expression + relative IL-8 mRNA expression + relative TNF-alpha mRNA expression",1 mg/L
same,NOEL,"Labeo boga; short-term, duration: 16 day, Thicklip grey mullet, relative apoA1 expression in liver (Day 2) + relative cc3 expression in liver (Day 16) + relative cc3 expression in liver (Day 2) + relative…",2 ppm
same,LOEL,"Labeo boga; short-term, duration: 16 day, Thicklip grey mullet, relative apoA1 expression in liver (Day 16) + relative fabp expression in liver (Day 2)",2 ppm
same,LOEL,"Labeo boga; short-term, duration: 21 day, Atlantic Salmon, cortisol",0.1 mg/L
same,LOEL,"Labeo boga; subchronic, duration: 48 day, Atlantic Salmon, cortisol",0.1 mg/L
same,NOEL,"Labeo boga; subchronic, duration: 48 day, Atlantic Salmon, fresh weight + length + thymus: thymus somatic index + thymus: thymus volume",0.1 mg/L
same,LOEL,"Labeo boga; subchronic, duration: 56 day, Atlantic Salmon, cortisol",0.1 mg/L
same,NOEL,"[1]; short-term, duration: 22 day, M/F",0.2 mg/L
same,LOEL,"[1]; subchronic, duration: 5 week, F",0.01 mg/L
same,LOEL (mg ion/kg egg),Bird; F1: IgM and IgY antibody titer (SRBC) + F1: plasma lysozyme activity + F1: spleen: spleen: relative weight,0.93
same,NOEL (mg ion/kg egg),Bird; F1: IgM antibody titer (SRBC) + F1: IgY antibody titer (SRBC) + F1: lymph node: normalized bursa mass + F1: PHA skin test (DTH response) + …,4.6
same,NOEL (TAD),"Monkey; chronic, duration: 26 weeks, F, lymphocyte count (Day 182) + lymphocyte count (LYMPH) (Day 182) + segmented neutrophil count (Day 182) + segmented neutrophil count (N-SEG…",115 mg/kg-day
same,LOEL (TAD),Monkey; [3],115 mg/kg-day
same,NOEL (TAD),Monkey; [3],22.9 mg/kg-day
same,NOEL (TAD),"Monkey; chronic, duration: 26 weeks, M, lymphocyte count (LYMPH) (Day 182) + segmented neutrophil count (%) (Day 182) + segmented neutrophil count (N-SEG) (Day 182)",115 mg/kg-day
same,NOEL,Monkey; F,2 mg/kg-day
same,NOEL,Monkey; M,2 mg/kg-day
same,FEL,[2],5 mg/L
same,LOAEL,"Mus musculus; acute, duration: 1 days, M, C57BL/6, Death: LD50",579 mg/kg-day
same,LOAEL,"Mus musculus; developmental, duration: 1 days, M, NMRI, Developmental: Altered spontaneous behavior (?60, 87.5, or 60% changes in total activity, rearing, and locomotion)",11.3 mg/kg-day
same,LOAEL,"Mus musculus; developmental, duration: 17 days, CD1, Developmental: Significant increase in cholesterol levels in fetal livers",3 mg/kg-day
same,LOAEL,Mus musculus; [4],3 mg/kg-day
same,NOAEL,Mus musculus; [4],0.1 mg/kg-day
same,LOAEL,"Mus musculus; developmental, duration: 19 days, F, CD1, Developmental: In PND 63 offspring fed a high fat diet, increased serum glucose levels at ?0.3 mg/kg/day in females (~40%) and 3 mg/kg/day …",0.3 mg/kg-day
same,NOAEL,"Mus musculus; developmental, duration: 19 days, F, CD1, ~24% increase in relative liver weight in dams at 3 mg/kg/day + Developmental: Increase in relative liver weight at 3 mg/kg/day in male and …",3 mg/kg-day
same,LOAEL,"Mus musculus; reproduction developmental, duration: 6 days, F, CD1, Body Weight: 21% reduction in maternal body weight gain on GDs 14-17",8 mg/kg-day
same,NOAEL,"Mus musculus; reproduction developmental, duration: 17 days, CD1, Hepatic: No alteration in maternal hepatic lipid levels",3 mg/kg-day
same,LOAEL,"Mus musculus; short-term, duration: 3 weeks, M, BALB/c, Body Weight: ~15% reduction in body weight during the recovery period",10 mg/kg-day
same,LOAEL,Mus musculus; [5],5 mg/kg-day
same,NOAEL,Mus musculus; [5],2.5 mg/kg-day
same,LOAEL,"Mus musculus; short-term, duration: 7 days, F, BALB/c, Body Weight: 41% decreased body weight gain + Immunotoxicological: Inhibition of T lymphocyte proliferation in response to sRBC / decreased…",20 mg/kg-day
same,NOAEL,"Mus musculus; short-term, duration: 7 days, F, BALB/c, Hepatic: 59% increase in relative liver weight",20 mg/kg-day
same,LOAEL,"Mus musculus; short-term, duration: 7 days, M, Immunotoxicological: Impaired response to T-cell mitogens / suppressed response to sRBC",5 mg/kg-day
same,NOAEL,"Mus musculus; short-term, duration: 10 days, M, C57BL/6, Hepatic: 41% increase in liver weight, hepatocellular hypertrophy, and decreased serum cholesterol levels",6 mg/kg-day
same,LOAEL,Mus musculus; [6],0.025 mg/kg-day
same,NOAEL,Mus musculus; [6],0.005 mg/kg-day
same,LOAEL,"Mus musculus; short-term, duration: 28 days, M, B6C3F1, Body Weight: 21% reduction in body weight",0.2 mg/kg-day
same,NOAEL,"Mus musculus; short-term, duration: 28 days, M, B6C3F1, Immunotoxicological: No alterations in thymic lymphocyte phenotypes, response to sRBC, or IgM antibodies to LPS",0.2 mg/kg-day
same,LOAEL,Mus musculus; [7],2.15 mg/kg-day
same,NOAEL,Mus musculus; [7],0.43 mg/kg-day
same,LOAEL,Mus musculus; [8],10 mg/kg-day
same,NOAEL,Mus musculus; [8],0.5 mg/kg-day
same,NOAEL,"Mus musculus; subchronic, duration: 6 weeks, M, Hepatic: Decreased plasma triglyceride, total cholesterol, non-HDL cholesterol, and HDL cholesterol levels / increased hepatic triglyceride…",3 mg/kg-day
same,NOAEL,"Mus musculus; subchronic, duration: 30 days, M, C57BL/6",10 mg/kg-day
same,LOAEL,"Mus musculus; subchronic, duration: 30 days, M, C57BL/6, Body Weight: 31% reduction in body weight (correlated with 68% reduction in feed consumption)",10 mg/kg-day
same,LOAEL,"Mus musculus; subchronic, duration: 30 days, M, C57BL/6, Hepatic: Increased liver weight (35%) and serum AST(~12%) and GGT levels (~98%) at ?[…] / increases in ALT (~45%) and ALP (~36%) at ?5 mg/…",2.5 mg/kg-day
